Results from patent US11111238B2, “Coumarin derivatives, processes for their preparation and uses thereof for the treatment of cancer” (Lead Discovery Center GmbH, priority 2017, dated 2021).
pIC50: −log10 of the molar value.

Key:
[1] = molecular target: mitochondrial RNA-polymerase (POLRMT) (Mus musculus, UniProt Q8BKF1); assay: Homogeneous TR-FRET assay for mitochondrial transcription activity; assay type: biochemical; details: homogeneous TR-FRET assay according to Example 4; activity class
Method in brief: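 Mouse POLRMT, TFAM and TFB2M with linearized pUC-LSP template in 10 mM Tris-HCl pH 7.5, 10 mM MgCl2, 40 mM NaCl; compounds at 10 μM or serial dilution, 10 min RT preincubation. Started with 500 μM each […], 2 h RT; 407 bp RNA product detected by hybridized Eu-cryptate/ATTO647N probe TR-FRET (ex 340, em 665 nm).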

HEC-59 (endometrial) = assay: CellTiter GLO viability assay, HEC-59; assay type: cell-based; details: 144 h, read-out: IC50 (μM) incubation time 144 h
Protocol: (§1) The CellTiter-Glo Luminescent Cell Viability Assay (Promega) is a homogeneous method of determining the number of viable cells in culture. It is based on quantification of ATP, indicating the presence of metabolically active cells.
(§2) Cells were seeded on day 1 at cell numbers that assure assay linearity and optimal signal intensity. After incubation for 3 h in humidified chambers at 37° C./5% CO2 compounds/DMSO were added at different concentrations. […] Cells treated with the compound vehicle DMSO were used as positive controls and cells treated with 10 μM Staurosporine served as negative controls. […] Thereon, mixture and assay plates were equilibrated at room temperature for 20 min. Equal volumes of the reagent-medium-mixture was added to the volume of culture medium present in each well.
(§3) The plates were mixed at ˜200 rpm for 2 minutes on an orbital shaker. The microplates were then incubated at room temperature for 10 minutes for stabilization of the luminescent signal. Following incubation the luminescence is recorded on a Victor microplate reader (Perkin Elmer) using 200 ms integration time. The data were then analyzed with Excel using the XLFIT Plugin (dose response Fit 205) for IC50-determination. As quality control the Z′-factor was calculated from 16 positive and negative control values. Only assay results showing a Z′-factor≥0.5 were used for further analysis.

NCI-H23 (lung) = assay: CellTiter GLO viability assay, NCI-H23; assay type: cell-based
Protocol: as §1, §2, §3

SW403 (colon) = assay: CellTiter GLO viability assay, SW403; assay type: cell-based; details: Homo sapiens, SW-403, 144 h, read-out: IC50 (μM) incubation time 144 h
Protocol: as §1
as §2, with “Cells were seeded on day 1 at cell numbers that assure assay linearity and optimal signal intensity.” left out
as §3

[2] = test system: human DLD-1 colon carcinoma xenograft; details: mouse, in vivo
Protocol: DLD-1 colon carcinoma cells (5×10^6 cells in 100 μL of PBS/Matrigel), isolated during exponential growth phase from in vitro cell culture, were transplanted s.c. into each female BALB/c nude mouse at day 0. Mice were kept under strictly controlled and standardized barrier conditions in IVC.
Sorafenib) (Nexavar®, which is an approved multi-kinase inhibitor/cytostatic from Bayer A G, was used as a positive control. Body weight and tumor volume (TV) were monitored two to three times per week.
Mice of groups 3, 4 and 5 were treated again at the end of the study period and blood samples were taken to generate plasma 1 h prior and 1 h post treatment. In addition, tumor and tissue samples were isolated, divided into two parts and snap frozen in liquid nitrogen. Mice of groups 1-5 were sacrificed at day 39. Gross autopsy was performed from all mice.

mitochondrial RNA-polymerase (POLRMT), sequence (Q8BKF1 42-1207): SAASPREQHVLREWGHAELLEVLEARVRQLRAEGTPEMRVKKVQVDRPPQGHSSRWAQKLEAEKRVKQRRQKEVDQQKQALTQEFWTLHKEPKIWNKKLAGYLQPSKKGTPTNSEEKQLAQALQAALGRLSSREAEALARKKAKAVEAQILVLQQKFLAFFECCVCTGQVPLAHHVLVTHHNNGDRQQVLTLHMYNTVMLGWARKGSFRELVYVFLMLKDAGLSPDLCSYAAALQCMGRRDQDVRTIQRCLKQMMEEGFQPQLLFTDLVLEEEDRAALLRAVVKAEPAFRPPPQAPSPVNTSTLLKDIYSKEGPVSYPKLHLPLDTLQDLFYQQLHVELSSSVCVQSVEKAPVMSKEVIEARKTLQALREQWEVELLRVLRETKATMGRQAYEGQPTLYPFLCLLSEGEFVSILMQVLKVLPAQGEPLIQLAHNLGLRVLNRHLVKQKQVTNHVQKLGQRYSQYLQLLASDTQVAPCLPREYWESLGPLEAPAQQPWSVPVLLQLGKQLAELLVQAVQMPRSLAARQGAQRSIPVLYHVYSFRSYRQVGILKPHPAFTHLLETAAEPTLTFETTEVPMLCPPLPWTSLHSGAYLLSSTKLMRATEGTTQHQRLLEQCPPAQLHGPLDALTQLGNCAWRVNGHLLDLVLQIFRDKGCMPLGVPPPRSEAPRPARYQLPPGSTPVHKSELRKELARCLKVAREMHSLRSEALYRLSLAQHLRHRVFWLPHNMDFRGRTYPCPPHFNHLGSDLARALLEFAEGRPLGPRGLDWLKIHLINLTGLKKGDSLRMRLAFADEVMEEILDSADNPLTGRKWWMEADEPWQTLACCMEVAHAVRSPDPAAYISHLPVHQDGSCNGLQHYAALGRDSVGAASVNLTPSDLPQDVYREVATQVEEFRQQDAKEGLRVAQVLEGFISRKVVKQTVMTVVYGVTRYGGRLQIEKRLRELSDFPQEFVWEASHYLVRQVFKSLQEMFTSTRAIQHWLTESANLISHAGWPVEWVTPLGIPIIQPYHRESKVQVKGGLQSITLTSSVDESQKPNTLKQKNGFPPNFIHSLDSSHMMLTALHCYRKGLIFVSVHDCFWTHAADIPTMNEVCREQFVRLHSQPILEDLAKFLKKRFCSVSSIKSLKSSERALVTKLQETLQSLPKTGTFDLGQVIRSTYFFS

C[C@@H](Oc1ccc2c(-c3ccc(F)cc3Cl)cc(=O)oc2c1)C(=O)N1CCC[C@H](C(=O)O)C1 [Compound 14, (3S)-1-[(2R)-2-[4-(2-chloro-4-fluoro-phenyl)-2-oxo-chromen-7-yl]oxypropanoyl]piperidine-3-carboxylic acid]
pIC50 [1]: > 7.70 | IC50 (HEC-59 (endometrial)): > 10 µM | IC50 (NCI-H23 (lung); Homo sapiens, NCI-H23 (lung), 144 h, read-out: IC50 (μM) incubation time 144 h): 1 to 10 µM | sensitivity of the cell line (in words) (NCI-H23 (lung); NCl-H23): moderate sensitivity | IC50 (SW403 (colon)): ≤ 0.1 µM | Autopsy at the end [2]: no abnormal observations | body weight loss [2]: moderate body weight loss | signs of toxicity [2]: no signs of toxicity were observed
